Values joined by “and” are separate entries in the source; they are usually repeats but may differ in a detail not shown here. Equal values may be shown once. Inconclusive results and toxic doses are left out. How the source made its calls: active means survival T/C of 150% or more; inactive means T/C below 125% in these data. Peptide text beside a SMILES is read from it.
Tested on: P388 leukemia ip, CD2F1 mice, survival T/C
Experiment: NCI In Vivo Anticancer Drug Screen. Data for tumor model P388 Leukemia (intraperitoneal) in CD2F1 (CDF1) mice
Details: endpoint: median survival time, higher = longer survival
How it was run: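 Mice carrying the transplanted tumor received test compound or vehicle. Survival was recorded in each group, and the value is the treated-group measurement divided by that of the vehicle-treated control group.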

[1] = dose: 60.0 mg/kg/injection, schedule: Q01DX005 (ip), vehicle: saline with Tween-80
[2] = dose: 120.0 mg/kg/injection, schedule: Q01DX005 (ip), vehicle: saline with Tween-80
[3] = dose: 240.0 mg/kg/injection, schedule: Q01DX005 (ip), vehicle: saline with Tween-80
[4] = dose: 100.0 mg/kg/injection, schedule: Q01DX001 (ip), vehicle: saline with Tween-80
[5] = dose: 200.0 mg/kg/injection, schedule: Q01DX001 (ip), vehicle: saline with Tween-80
[6] = dose: 400.0 mg/kg/injection, schedule: Q01DX001 (ip), vehicle: saline with Tween-80
[7] = dose: 50.0 mg/kg/injection, schedule: Q01DX005 (ip), vehicle: Klucel (hydroxypropylcellulose) (HPC)
[8] = dose: 100.0 mg/kg/injection, schedule: Q01DX005 (ip), vehicle: Klucel (hydroxypropylcellulose) (HPC)
[9] = dose: 200.0 mg/kg/injection, schedule: Q01DX005 (ip), vehicle: Klucel (hydroxypropylcellulose) (HPC)
[10] = dose: 60.0 mg/kg/injection, schedule: Q01DX005 (ip), vehicle: Klucel (hydroxypropylcellulose) (HPC)
[11] = dose: 120.0 mg/kg/injection, schedule: Q01DX005 (ip), vehicle: Klucel (hydroxypropylcellulose) (HPC)
[12] = dose: 240.0 mg/kg/injection, schedule: Q01DX005 (ip), vehicle: Klucel (hydroxypropylcellulose) (HPC)
[13] = dose: 60.0 mg/kg/injection, schedule: Q01DX005 (ip), vehicle: saline
[14] = dose: 120.0 mg/kg/injection, schedule: Q01DX005 (ip), vehicle: saline
[15] = dose: 50.0 mg/kg/injection, schedule: Q01DX005 (ip), vehicle: saline
[16] = dose: 100.0 mg/kg/injection, schedule: Q01DX005 (ip), vehicle: saline
[17] = dose: 200.0 mg/kg/injection, schedule: Q01DX005 (ip), vehicle: saline
[18] = dose: 6.25 mg/kg/injection, schedule: Q01DX009 (ip), vehicle: saline
[19] = dose: 25.0 mg/kg/injection, schedule: Q01DX009 (ip), vehicle: saline

Measured: T/C

COC(=O)C1(CC(=O)c2ccccc2)NC(=S)NC(=O)C1C#N (centres undefined)
inactive: [1] 103 % of control | [2] 98 % of control | [3] 98 % of control

O=C(O[Si](Cc1ccccc1)(Cc1ccccc1)Cc1ccccc1)N(CCCl)CCCl
inactive: dose: 12.5 mg/kg/injection, schedule: Q04DX002 (ip), vehicle: saline with Tween-80 111 % of control | dose: 25.0 mg/kg/injection, schedule: Q04DX002 (ip), vehicle: saline with Tween-80 120 % of control
active: dose: 25.0 mg/kg/injection, schedule: Q04DX003 (ip), vehicle: saline 154 % of control | dose: 50.0 mg/kg/injection, schedule: Q04DX002 (ip), vehicle: saline with Tween-80 159 % of control | dose: 50.0 mg/kg/injection, schedule: Q04DX003 (ip), vehicle: saline 214 % of control | dose: 100.0 mg/kg/injection, schedule: Q04DX002 (ip), vehicle: saline with Tween-80 180 % of control

CNCCNc1ccc(C)c2sc3ccc(O)cc3c(=O)c12
inactive: dose: 25.0 mg/kg/injection, schedule: Q01DX009 (ip), vehicle: Klucel (hydroxypropylcellulose) (HPC) 95 % of control

CCOC(=O)c1c(NCCO)c(-c2ccccc2)c(=O)n2c1[nH]c1ccccc12
inactive: [4] 100 % of control | [5] 99 % of control | [6] 87 % of control

COc1cccc(C2NC(c3cccc(OC)c3)C3CCCC2C3=O)c1 (centres undefined)
inactive: dose: 25.0 mg/kg/injection, schedule: Q01DX005 (ip), vehicle: Klucel (hydroxypropylcellulose) (HPC) 103 % of control | [7] 102 % of control | [8] 106 % of control | [9] 102 % of control

N#C/C(=C(/N)N1CCOCC1)N1CCOCC1
inactive: [10] 100 % of control | [11] 95 % of control | [12] 98 % of control

CCOP(=S)(N/N=C/c1cccnc1)OCC
inactive: dose: 100.0 mg/kg/injection, schedule: Q01DX001 (ip), vehicle: Klucel (hydroxypropylcellulose) (HPC) 101 % of control | dose: 200.0 mg/kg/injection, schedule: Q01DX001 (ip), vehicle: Klucel (hydroxypropylcellulose) (HPC) 101 % of control | dose: 400.0 mg/kg/injection, schedule: Q01DX001 (ip), vehicle: Klucel (hydroxypropylcellulose) (HPC) 108 % of control

O=P(c1ccccc1)(c1ccccc1)C(O)c1ccncc1 (centres undefined)
inactive: dose: 50.0 mg/kg/injection, schedule: Q01DX009 (ip), vehicle: Klucel (hydroxypropylcellulose) (HPC) 102 % of control | dose: 100.0 mg/kg/injection, schedule: Q01DX009 (ip), vehicle: Klucel (hydroxypropylcellulose) (HPC) 103 % of control | dose: 200.0 mg/kg/injection, schedule: Q01DX009 (ip), vehicle: Klucel (hydroxypropylcellulose) (HPC) 103 % of control

CCCCCCC(Cn1ccnc1)c1ccccc1Cl (centres undefined)
inactive: dose: 25.0 mg/kg/injection, schedule: Q04DX003 (ip), vehicle: saline with Tween-80 100 % of control | dose: 50.0 mg/kg/injection, schedule: Q04DX003 (ip), vehicle: saline with Tween-80 98 % of control | dose: 100.0 mg/kg/injection, schedule: Q04DX003 (ip), vehicle: saline with Tween-80 106 % of control

CSc1nc(N)c(NS(=O)(=O)c2cccc(N)c2)c(=O)[nH]1
inactive: [1] 100 % of control | [2] 99 % of control | [3] 99 % of control

OC1CC2CCC(C1)N2 (centres undefined)
inactive: [13] 100 % of control | [14] 96 % of control

CS(=O)(=O)Nc1ccc(Oc2c3ccccc3nc3ccccc23)cc1
inactive: [4] 91 % of control | [5] 92 % of control | [6] 90 % of control

Cc1ccc(S(=O)(=O)N/N=C/c2ccc(C(=O)O)cc2)cc1
inactive: dose: 12.5 mg/kg/injection, schedule: Q01DX009 (ip), vehicle: other 105 % of control | dose: 25.0 mg/kg/injection, schedule: Q01DX009 (ip), vehicle: other 111 % of control | dose: 50.0 mg/kg/injection, schedule: Q01DX009 (ip), vehicle: other 109 % of control | dose: 100.0 mg/kg/injection, schedule: Q01DX009 (ip), vehicle: other 100 % of control | dose: 200.0 mg/kg/injection, schedule: Q01DX009 (ip), vehicle: other 95 % of control | dose: 400.0 mg/kg/injection, schedule: Q01DX009 (ip), vehicle: other 105 % of control

O=c1[nH]cnc2nc(SCc3ccc([N+](=O)[O-])cc3)[nH]c12
inactive: [10] 105 % of control | [11] 102 % of control | [12] 108 % of control

Cc1c(CCNC=O)ccc2c1[nH]c1ccccc12
inactive: [7] 95 % of control | [8] 96 % of control | [9] 100 % of control

NCCCCC(NC(=O)C(N)CCCN=C(N)N)C(=O)O (stereo not drawn) (H-Arg-Lys-OH; configuration not given here)
inactive: [15] 94 % of control | [16] 106 % of control | [17] 100 % of control

CC(=O)c1c(O)cc2c3c1OC(C)(C)C1CCC(C)(CC31)O2 (centres undefined)
inactive: [18] 105 % of control | dose: 12.5 mg/kg/injection, schedule: Q01DX009 (ip), vehicle: saline 105 % of control | [19] 104 % of control | dose: 100.0 mg/kg/injection, schedule: Q01DX009 (ip), vehicle: saline 89 % of control | dose: 200.0 mg/kg/injection, schedule: Q01DX009 (ip), vehicle: saline 93 % of control

O=C(O)c1ccnc2c1ccc1ccccc12
inactive: dose: 100.0 mg/kg/injection, schedule: Q04DX002 (ip), vehicle: Klucel (hydroxypropylcellulose) (HPC) 103 % of control | dose: 200.0 mg/kg/injection, schedule: Q04DX002 (ip), vehicle: Klucel (hydroxypropylcellulose) (HPC) 94 % of control

O=Cc1cccc(S(=O)(=O)O)c1
inactive: [13] 100 % of control | [14] 94 % of control | dose: 240.0 mg/kg/injection, schedule: Q01DX005 (ip), vehicle: saline 102 % of control

Oc1cc2c(cc1C(c1ccc3c(c1)OCO3)N1CCCC1)OCO2 (centres undefined)
inactive: [10] 109 % of control | [11] 110 % of control | [12] 112 % of control

CCCS(=O)(=O)Nc1ccc(Nc2c3ccccc3nc3ccccc23)c(OC)c1
active: [19] 150 % of control and 160 % of control | dose: 50.0 mg/kg/injection, schedule: Q01DX009 (ip), vehicle: saline 150 % of control
inactive: [18] 118 % of control

CC(C)C12CCC(=O)C=C1CCCC2O (centres undefined)
inactive: dose: 100.0 mg/kg/injection, schedule: Q01DX009 (ip), vehicle: saline sonified 90 % of control | dose: 200.0 mg/kg/injection, schedule: Q01DX009 (ip), vehicle: saline sonified 100 % of control | dose: 400.0 mg/kg/injection, schedule: Q01DX009 (ip), vehicle: saline sonified 109 % of control

COC(=O)C1CCC(=O)N1Cc1cccs1 (centres undefined)
inactive: [1] 109 % of control | [2] 104 % of control | [3] 106 % of control

O=C1CC(c2ccc([N+](=O)[O-])cc2)O1 (centres undefined)
inactive: dose: 100.0 mg/kg/injection, schedule: Q01DX001 (ip), vehicle: saline 101 % of control | dose: 200.0 mg/kg/injection, schedule: Q01DX001 (ip), vehicle: saline 104 % of control | dose: 400.0 mg/kg/injection, schedule: Q01DX001 (ip), vehicle: saline 102 % of control

CC(O)C(=O)NC1CCCCC1 (centres undefined)
inactive: [15] 98 % of control | [16] 88 % of control | [17] 89 % of control

COc1cc(/C=C/C(=O)c2ccc(Nc3ccnc4cc(Cl)ccc34)cc2)cc(OC)c1OC
inactive: [4] 102 % of control | [5] 97 % of control | [6] 93 % of control

N#CCC(=O)N/N=C(\CC1(O)C(=O)Nc2c(Cl)cc(Cl)cc21)c1cccc2ccccc12 (centres undefined)
inactive: dose: 12.5 mg/kg/injection, schedule: Q01DX005 (ip), vehicle: saline with Tween-80 90 % of control | dose: 25.0 mg/kg/injection, schedule: Q01DX005 (ip), vehicle: saline with Tween-80 89 % of control | dose: 50.0 mg/kg/injection, schedule: Q01DX005 (ip), vehicle: saline with Tween-80 88 % of control | dose: 100.0 mg/kg/injection, schedule: Q01DX005 (ip), vehicle: saline with Tween-80 88 % of control

CC(=O)CC(C)=O.CC(=O)CC(C)=O.[Cl][Sn][c]1ccccc1
inactive: dose: 25.0 mg/kg/injection, schedule: Q01DX005 (ip), vehicle: saline 109 % of control and 116 % of control | [15] 110 % of control and 122 % of control | [16] 109 % of control and 115 % of control | [17] 107 % of control and 111 % of control and 113 % of control

CC(NC(=O)C(CO)NC(=O)OCc1ccccc1)C(=O)O (centres undefined)
inactive: [7] 118 % of control | [8] 97 % of control | [9] 108 % of control
